Results from US6391599B1, “Sham-sensitive terminal oxidase gene from xylose-fermenting yeast” (priority 2000, dated 2002).
Entries after “also recorded” stand apart in the source; their conditions may differ.

Columns and labels:
Type in all cases: cell-based, Pichia stipitis
Set-up in all cases: key to Rotenone sensitivity (rotenone-insensitive respiration): +: Cells sustained rotenone-insensitive respiration; −: Cells could not sustain rotenone-insensitive respiration
[1] = tested on: P. stipitis FPL-Shi21 (cyc1-Δ); experiment: Respiration measurement (oxygen uptake) with inhibitor; conditions: for Effect on respiration: FPL-Shi21 (cyc1Δ); for Rotenone sensitivity (rotenone-insensitive respiration): 0.1 mM rotenone, FPL-Shi21; for Sensitivity of respiration to rotenone (in words): cyc1Δ mutant
Procedure: (§1) P. stipitis strains were grown overnight in YNBUP-xylose (2%) medium under aerobic conditions. Then half of the overnight-grown cells were transferred to 25 mL fresh medium to grow for 16 h to mid-log phase under the same conditions. The cells were harvested and washed in an assay buffer containing 20 mM potassium phosphate (pH7.0) and 5 mM magnesium chloride. The cells were resuspended in 500 μL of the same buffer for assays. Oxygen uptake was measured by using a Clark type of electrode (Yellow Spring Instrument). The assay was performed in an assay buffer containing 20 mM potassium phosphate, 5 mM magnesium chloride, plus xylose or glucose (2%) as the substrate at 30° C. The assay buffer was saturated with air before the experiment. Ten to fifty μL of cells were injected into the assay chamber and the total reaction volume was 2 mL. Antimycin A, SHAM or rotenone was dissolved in dimethyl formamide while potassium cyanide was dissolved in water. Inhibitor solution was injected into the chamber after adding the cells.

[2] = tested on: P. stipitis FPL-Shi31 (sto1-Δ); experiment: as above; conditions: for Rotenone sensitivity (rotenone-insensitive respiration): 0.1 mM rotenone, FPL-Shi31; for Sensitivity of respiration to rotenone (in words): sto1Δ mutant
Procedure: as §1

[3] = tested on: P. stipitis wild-type CBS 6054; experiment: Respiration measurement (oxygen uptake, Clark type electrode) with inhibitor; conditions: 0.1 mM rotenone
Procedure: as §1

[4] = tested on: P. stipitis FPL-UC7 (ura3-3); experiment: Respiration measurement (oxygen uptake) with inhibitor; conditions: for Rotenone sensitivity (rotenone-insensitive respiration): 0.1 mM rotenone
Procedure: as §1

O=C(NO)c1ccccc1O [SHAM, salicyl hydroxymate]
Effect on respiration [1]: completely blocked
Effect on respiration trace ([2]; 4 mM SHAM, sto1Δ cells pre-grown on YNB-xylose (2%)): did not show any change

C=C(C)[C@H]1Cc2c(ccc3c2O[C@@H]2COc4cc(OC)c(OC)cc4[C@@H]2C3=O)O1 [rotenone]
Rotenone sensitivity (rotenone-insensitive respiration) ([3]; glucose-grown cells, CBS 6054): −
Sensitivity of respiration to rotenone (in words) ([3]; glucose-grown cells, CBS 6054): could not sustain any respiration; also recorded: rotenone-sensitive
Time after injection until cells died and floated in the chamber ([3]; glucose-grown cells, CBS 6054): ≤ 1 min
Oxygen consumption rate, +rotenone ([3]; xylose-grown cells): 4.6 ± 0.2 µM/mg/h
Rotenone sensitivity (rotenone-insensitive respiration) ([3]; xylose-grown cells, CBS 6054): +
Sensitivity of respiration to rotenone (in words) ([3]; xylose-grown cells, CBS 6054): respiration was sustained; also recorded: insensitivity to rotenone
Rotenone sensitivity (rotenone-insensitive respiration) ([1]; glucose-grown cells): −
Rotenone sensitivity (rotenone-insensitive respiration) ([1]; xylose-grown cells): −
Sensitivity of respiration to rotenone (in words) ([1]; glucose-grown cells): rotenone-sensitive
Sensitivity of respiration to rotenone (in words) ([1]; xylose-grown cells): rotenone-sensitive
Rotenone sensitivity (rotenone-insensitive respiration) ([2]; glucose-grown cells): −
Rotenone sensitivity (rotenone-insensitive respiration) ([2]; xylose-grown cells): −
Sensitivity of respiration to rotenone (in words) ([2]; glucose-grown cells): rotenone-sensitive
Sensitivity of respiration to rotenone (in words) ([2]; xylose-grown cells): rotenone-sensitive
Rotenone sensitivity (rotenone-insensitive respiration) ([4]; glucose-grown cells): −
Rotenone sensitivity (rotenone-insensitive respiration) ([4]; xylose-grown cells): +
Sensitivity of respiration to rotenone (in words) ([4]; glucose-grown cells): rotenone-sensitive
Sensitivity of respiration to rotenone (in words) ([4]; xylose-grown cells): insensitivity to rotenone

antimycin A
Effect on respiration [1]: insensitivity
Effect on respiration ([2]; 10 μM antimycin A, sto1Δ mutant cells): respiration dropped to zero
